Test [1] relates to S. cerevisiae aged culture, superoxide DHE fluorescence, 7 d. Kind of test: reduction of age-related superoxide, S. cerevisiae – additional hits, confirmation, dose response (AID 504927).
Test in test [2]: as above
As to conditions: S. cerevisiae aged culture, superoxide DHE fluorescence, 7 d; at 33.1 µM (top of the series).

SMILES strings stand for the structures. “And” between values parts separate entries of the source, which are not always exact repeats. Equal entries are not always repeated. The source made the active and inactive calls.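 The calls were made as follows: active = EC50 below 10 microM from an accepted curve fit, fit percent over 10, EC50 error under a fifth; inactive = the rest.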

As a reminder, the EC50 is the concentration that produces a half-maximal response. On to `O=C1c2c(O)ccc(O)c2C(=O)c2c(NCCNCCO)ccc(NCCNCCO)c21`, for which the concentration giving a half-maximal response (EC50) in test [1] is 6.58 µM.
On to `COc1ccc2c3c(cccc13)N(C)N=C2C`, for which the percent response (superoxide), lower = inhibition in test [2] was 78.1% (inactive).
Consider `COc1ccc2nc3ccccc3nc2c1NC(=O)c1ccccc1Cl`, for which, in test [1], the 50% effective concentration (EC50) is 0.06 µM.
For `CNc1ccc2nc3ccccc3[n+](C)c2c1`, the EC50 in test [1] was 2.11 µM.
Take `O=C(Nc1ccc2nc3ccccc3nc2c1)c1ccc(Br)cc1`: the percent response (superoxide), lower = inhibition in test [2] is 104% (inactive).
For the molecule `CSc1nnc(-c2ccc([N+](=O)[O-])cc2)o1`, the EC50 in test [1] was 13.1 µM (inactive).
Take `C/C(=N\Nc1ncnc2sc(C)c(C)c12)c1ccccn1`: in test [1], the EC50 is 10.4 µM (inactive).
As to `O=C(CN1CCN(c2ccccn2)CC1)Nc1ccccc1F`, in test [2], the percent response (superoxide), lower = inhibition was 108% (inactive).
For `CC(C)OC(=O)c1ccc2nc3ccccc3nc2c1`, the EC50 in test [1] is 12.6 µM (inactive).
For the molecule `C[C@]12CCC3C(CC[C@H]4C[C@@H](O)CC[C@]34C)C1CC[C@@H]2OC(=O)[C@H](N)CCCCN` (stereo partly drawn), the percent response (superoxide), lower = inhibition in test [2] was 96.2% (inactive).
The same measure, in the same setting: the same measure for `O=c1[nH]c(O)c(C=Nc2ccc(F)c(Cl)c2)c(=O)[nH]1`: 97.1% (inactive); for `NC(=O)CSc1nnc(-c2ccc([N+](=O)[O-])cc2)o1`: 99.1% (inactive); for `CC(C)CSc1nnc2c3ccccc3n(C)c2n1`: 105% (inactive).
On the same count and under the same terms, the same measure for `COc1ccc2nc3ccccc3[n+]([O-])c2c1`: 107% (inactive).
In the case of `c1ccc2[nH]c3cc4ncnc4cc3nc2c1`, in test [1], the half-maximal effective concentration (EC50) is 0.13 µM.
For the molecule `CC(=O)[C@@]1(O)CCC2C3CC[C@H]4C[C@@H](O)CC[C@]4(C)C3CC[C@@]21C` (stereo partly drawn), the percent response (superoxide), lower = inhibition in test [2] was 107% (inactive).
As to `[O-][n+]1c2ccccc2[n+]([O-])c2cc(O)ccc21`, the EC50 in test [1] was 1.11 µM.
On to `Cn1c(=O)[nH]c2nncnc2c1=O`, for which the concentration giving a half-maximal response (EC50) in test [1] is 3.4 µM.
Regarding `COc1cccc2nc3cc(C)c(C)cc3nc12`, the percent response (superoxide), lower = inhibition in test [2] is 78.3% (inactive).
For `CCN(CC)C(=O)c1ccc2nc3ccccc3nc2c1`, the 50% effective concentration (EC50) in test [1] is 0.79 µM.
Take `COc1ccc2cc(C3CC(c4ccco4)=NN3S(=O)(=O)c3ccccc3)c(Cl)nc2c1` (stereo not drawn): the percent response (superoxide), lower = inhibition in test [2] was 110% (inactive).
As for `CCC(=Nc1ccccc1O)C1=C(O)CC(c2ccccc2)CC1=O` (stereo not drawn), in test [2], the percent response (superoxide), lower = inhibition is 87.9% (inactive).
Take `CC(=O)Nc1ccc2nc3ccccc3nc2c1`: the EC50 in test [1] is 0.17 µM.
As for `C[C@]12CCC3C(CC[C@H]4C[C@@H](O)CC[C@]34C)[C@H]1CC[C@H]2O` (stereo partly drawn), the percent response (superoxide), lower = inhibition in test [2] is 113% (inactive).
Take `C[C@@]12C(=O)OC(=O)[C@]1(C)C1CCC2O1`: the EC50 in test [1] was 0.18 µM.
For `O=C(/C=C/c1ccccc1)NC(=S)NNC(=O)Cc1cccs1`, in test [2], the percent response (superoxide), lower = inhibition is 78.9% (inactive).
The same measure, in the same setting: the same measure for `N#CC(c1nc2ccccc2nc1N1CCCC1)S(=O)(=O)c1ccccc1` (stereo not drawn): 128% (inactive); for `CCN(CC)C(=O)CSc1nnc(-c2cccc(OC)c2)o1`: 108% (inactive).
For the molecule `O=C(O)c1cnc2ccccc2n1`, in test [1], the EC50 was 13.4 µM (inactive).
For the molecule `CC(C)(C)n1nc(-c2ccc(F)cc2)c2c(N)ncnc21`, the EC50 in test [1] was 2.44 µM.
With `CNC(=O)c1cccc2nc3ccccc3nc12`, the percent response (superoxide), lower = inhibition in test [2] is 52% (inactive).
Same read-out and setting: to `c1ccc2nc3ccccc3nc2c1` belongs 88.6% (inactive).
In the case of `O=C(c1cccc2nc3ccccc3nc12)N1CCOCC1`, the EC50 in test [1] was 1.75 µM.
On to `O=C(/C=C/c1cccs1)NC(=S)NNC(=O)Cc1cccs1`, for which, in test [2], the percent response (superoxide), lower = inhibition was 132% (inactive).
For the molecule `CCN(CC)C(=O)c1cccc2nc3ccccc3nc12`, the EC50 in test [1] was 1.52 µM.
On to `CCn1c2ccccc2c2n[nH]c(=S)nc21`, for which the percent response (superoxide), lower = inhibition in test [2] is 94.7% (inactive).
With `Cc1ccccc1NC(=O)c1cccc2nc3ccccc3nc12`, the percent response (superoxide), lower = inhibition in test [2] was 104% (inactive).
Take `O=C(Nc1cccc(Cl)c1)Nc1ccc2nccnc2c1`: the EC50 in test [1] was 0.51 µM.
Take `N#CCc1nn(-c2ccccc2)c2ncnc(N)c12`: the percent response (superoxide), lower = inhibition in test [2] was 95.5% (inactive).
Turning to `CN(C)CCNc1ncnc2c1cnn2-c1ccc(Cl)cc1`, the percent response (superoxide), lower = inhibition in test [2] was 97.4% (inactive).
Take `OCC[n+]1c2ccccc2nc2ccc(N3CCOCC3)cc21`: the EC50 in test [1] was 2.61 µM.
`C#CCSc1nnc(-c2ccc([N+](=O)[O-])cc2)o1`: in test [1], the half-maximal effective concentration (EC50) is 5.16 µM.
For `CC(C)(C)Nc1ncnc2c1cnn2-c1ccccc1`, the percent response (superoxide), lower = inhibition in test [2] is 110% (inactive).
Turning to `Cc1cccc2nc3ccccc3nc12`, the concentration giving a half-maximal response (EC50) in test [1] is 2.72 µM.
As for `CC(=O)O[C@H]1CCC2C3CC[C@H]4[C@@H](O)[C@H](O)CC[C@]4(C)C3CC[C@@]21C` (stereo partly drawn), the percent response (superoxide), lower = inhibition in test [2] was 93.3% (inactive).
For `Cc1cc(C)c2[nH]c3nc(SCC(=O)O)nnc3c2c1`, the percent response (superoxide), lower = inhibition in test [2] is 111% (inactive).
As for `COc1ccc2nc3ccccc3nc2c1N`, the concentration giving a half-maximal response (EC50) in test [1] was 1.13 µM.
Take `COC(=O)c1cccc2nc3c(C(C)O)cccc3nc12` (stereo not drawn): the EC50 in test [1] was 0.91 µM.
As to `FC(F)(F)c1nc2cc3nc4ccccc4[nH]c3cc2n1`, in test [2], the percent response (superoxide), lower = inhibition was 72.2% (inactive).
On the same count and under the same terms, the same measure for `Oc1cccc2nc3ccccc3nc12`: 129% (inactive); for `CCc1nc(NC(C)(C)C)c2cnn(-c3ccccc3)c2n1`: 119% (inactive).
Turning to `C[n+]1c2ccccc2nc2ccc(NCCO)cc21`, in test [1], the EC50 was 4.52 µM.
Take `Cc1cc2nc3ccc(N(C)C)cc3nc2cc1N`: the percent response (superoxide), lower = inhibition in test [2] is 82.4% (inactive).
As to `O=C(Nc1ccc2nc3ccccc3nc2c1)c1ccccc1`, in test [1], the half-maximal effective concentration (EC50) is 0.08 µM.
Consider `O=C(OCc1c(F)cccc1Cl)c1cnc2ccccc2n1`, for which the 50% effective concentration (EC50) in test [1] was 5.98 µM.
For the molecule `C=CCSc1nnc(-c2ccc([N+](=O)[O-])cc2)o1`, the percent response (superoxide), lower = inhibition in test [2] was 63.5% (inactive).
For the molecule `Cn1c(O)c(C(=Nc2ccc(F)cc2)c2ccccc2Cl)c(=O)n(C)c1=O`, in test [2], the percent response (superoxide), lower = inhibition was 113% (inactive).
Turning to `COc1ccc2nc3cccc(OC)c3nc2c1`, in test [2], the percent response (superoxide), lower = inhibition was 79.2% (inactive).
As to `CSc1nnc2c3cc(F)ccc3n(C)c2n1`, in test [1], the EC50 is 5.86 µM.
In the case of `C=C1C(O)[C@@H]2O[C@]3(CC[C@H](/C=C/C(C)[C@@H]4CC(C)=CC5(O[C@H](C[C@@](C)(O)C(=O)O)CCC5O)O4)O3)CC[C@H]2O[C@@H]1C(O)CC(C)[C@H]1OC2(CCCCO2)CCC1C` (stereo partly drawn), the percent response (superoxide), lower = inhibition in test [2] was 84% (inactive).
`COc1ccc2nc3ccccc3nc2c1`: the EC50 in test [1] is 0.37 µM and 0.85 µM.
In the case of `COc1ccc2c(c1)c1nnc(SC)nc1n2C`, the percent response (superoxide), lower = inhibition in test [2] was 54.2% (inactive).
Consider `CCN(CC)c1ccc2nc3ccc(N)cc3[n+](-c3ccccc3)c2c1`, for which the EC50 in test [1] was 2.31 µM.
Turning to `CCCCCNC(=O)C(=O)C1C(=O)Nc2ccccc21` (stereo not drawn), the percent response (superoxide), lower = inhibition in test [2] was 86.1% (inactive).
`Nc1cc2nc3ccccc3nc2cc1N`: the EC50 in test [1] is 3.5 µM.
With `Cc1cc(C)cc(NC(=O)CN2CCN(c3ccccn3)CC2)c1`, the percent response (superoxide), lower = inhibition in test [2] is 95.7% (inactive).
Consider `CC(C)(C)n1nc(-c2ccc(Cl)cc2)c2c(N)ncnc21`, for which the EC50 in test [1] is 4.23 µM.
As to `C[C@]12CCC3C(CC[C@H]4C[C@H](O)CC[C@]34C)C1C[C@@H](CCCCl)[C@@H]2O` (stereo partly drawn), the concentration giving a half-maximal response (EC50) in test [1] is 0.53 µM.
Consider `CC(C)OC(=O)CSc1nnc(-c2ccc(Cl)cc2Cl)o1`, for which the percent response (superoxide), lower = inhibition in test [2] was 128% (inactive).
On the same count and under the same terms, the same measure for `C=CCOn1c(=O)c(-c2cccs2)[n+]([O-])c2ccccc21`: 83.4% (inactive).
Consider `C[C@]12CCC3C(CC[C@H]4C[C@H](O)CC[C@]34C)C1CCC2=O` (stereo partly drawn), for which the EC50 in test [1] was 0.03 µM.
For `C#C[C@]1(O)[C@H](O)CC2C3CC[C@H]4C[C@@H](O)CC[C@]4(C)C3CC[C@@]21C` (stereo partly drawn), the percent response (superoxide), lower = inhibition in test [2] is 117% (inactive).
For the molecule `Cc1ccc(-c2nn(C(C)(C)C)c3ncnc(N)c23)cc1`, in test [2], the percent response (superoxide), lower = inhibition was 44.3% (inactive).
